Source: PubChem BioAssay AID1963845 (Molecular Pharmacology Branch, DTP, NCI, 2024)

System: 429239-143-T-J1-PDC complex spheroid viability
Test: Anticancer human tumor 429239-143-T-J1-PDC patient-derived small cell lung carcinoma cell line growth inhibition [POLQ]
Details: for IC50: curve of first compound; for viability, T/C: stronger effect = lower value
In short: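 PDC + HUVEC + MSC complex spheroids; POLQ inhibitors ± partner drugs; top conc. at/near clinical Cmax, else 10 microM (SN-38 1 microM), half-log dilutions; 37 degrees C, 5% CO2.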

[1] = second compound 0.0316 µM, first compound 0.0316 µM
[2] = second compound 0.0316 µM, first compound 0.1 µM
[3] = second compound 0.0316 µM, first compound 0.316 µM
[4] = second compound 0.0316 µM, first compound 1 µM
[5] = second compound 0.0316 µM, first compound 3.16 µM
[6] = second compound 0.0316 µM, first compound 10 µM
[7] = second compound 0.1 µM, first compound 0.0316 µM
[8] = second compound 0.1 µM, first compound 0.1 µM
[9] = second compound 0.1 µM, first compound 0.316 µM
[10] = second compound 0.1 µM, first compound 1 µM
[11] = second compound 0.1 µM, first compound 3.16 µM
[12] = second compound 0.1 µM, first compound 10 µM
[13] = second compound 0.316 µM, first compound 0.0316 µM
[14] = second compound 0.316 µM, first compound 0.1 µM
[15] = second compound 0.316 µM, first compound 0.316 µM
[16] = second compound 0.316 µM, first compound 1 µM
[17] = second compound 0.316 µM, first compound 3.16 µM
[18] = second compound 0.316 µM, first compound 10 µM
[19] = second compound 1 µM, first compound 0.0316 µM
[20] = second compound 1 µM, first compound 0.1 µM
[21] = second compound 1 µM, first compound 0.316 µM
[22] = second compound 1 µM, first compound 1 µM
[23] = second compound 1 µM, first compound 3.16 µM
[24] = second compound 1 µM, first compound 10 µM
[25] = second compound 3.16 µM, first compound 0.0316 µM
[26] = second compound 3.16 µM, first compound 0.1 µM
[27] = second compound 3.16 µM, first compound 0.316 µM
[28] = second compound 3.16 µM, first compound 1 µM
[29] = second compound 3.16 µM, first compound 3.16 µM
[30] = second compound 3.16 µM, first compound 10 µM
[31] = second compound 10 µM, first compound 0.0316 µM
[32] = second compound 10 µM, first compound 0.1 µM
[33] = second compound 10 µM, first compound 0.316 µM
[34] = second compound 10 µM, first compound 1 µM
[35] = second compound 10 µM, first compound 3.16 µM
[36] = second compound 10 µM, first compound 10 µM
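Note: luminescence signal used as surrogate measure of viable cells; spheroids exposed to compounds for seven days before readout.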
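Throughout, for viability, T/C: 100% = DMSO vehicle control viability as luminescence relative to vehicle.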

C=CC(=O)N1CCN(c2nc(=O)n(-c3c(C)ccnc3C(C)C)c3nc(-c4c(O)cccc4F)c(F)cc23)C(C)C1 (centres undefined) + Nc1ccc(C#CCN(C(=O)Cc2ncc(C(F)(F)F)cc2C(F)(F)F)c2ccc(F)cc2)nn1
IC50 (second compound 0.0316 µM): > 10 µM
IC50 (second compound 0.1 µM): > 10 µM
IC50 (second compound 0.316 µM): > 10 µM
IC50 (second compound 1 µM): > 10 µM
IC50 (second compound 3.16 µM): > 10 µM
IC50 (second compound 10 µM): > 10 µM
viability, T/C [1]: 101%
viability, T/C [2]: 97.2%
viability, T/C [3]: 97.2%
viability, T/C [4]: 114%
viability, T/C [5]: 108%
viability, T/C [6]: 93.8%
viability, T/C [7]: 97.7%
viability, T/C [8]: 113%
viability, T/C [9]: 108%
viability, T/C [10]: 114%
viability, T/C [11]: 102%
viability, T/C [12]: 96.8%
viability, T/C [13]: 108%
viability, T/C [14]: 97.6%
viability, T/C [15]: 99.6%
viability, T/C [16]: 103%
viability, T/C [17]: 109%
viability, T/C [18]: 94.1%
viability, T/C [19]: 98.9%
viability, T/C [20]: 103%
viability, T/C [21]: 99.3%
viability, T/C [22]: 112%
viability, T/C [23]: 98.4%
viability, T/C [24]: 91.8%
viability, T/C [25]: 107%
viability, T/C [26]: 105%
viability, T/C [27]: 109%
viability, T/C [28]: 115%
viability, T/C [29]: 104%
viability, T/C [30]: 97.3%
viability, T/C [31]: 104%
viability, T/C [32]: 98.8%
viability, T/C [33]: 111%
viability, T/C [34]: 108%
viability, T/C [35]: 95.7%
viability, T/C [36]: 96.8%

O=c1[nH]cc(F)c(=O)[nH]1 + COC1C(OC(N)=O)C(O)C(Oc2ccc3c(O)c(NC(=O)c4ccc(O)c(CC=C(C)C)c4)c(=O)oc3c2C)OC1(C)C
IC50 (second compound 0.0316 µM): 9.58 µM
IC50 (second compound 0.1 µM): 7.31 µM
IC50 (second compound 0.316 µM): 6.05 µM
IC50 (second compound 1 µM): 9.05 µM
IC50 (second compound 3.16 µM): 7.96 µM
IC50 (second compound 10 µM): 6.66 µM
viability, T/C [1]: 114%
viability, T/C [2]: 111%
viability, T/C [3]: 108%
viability, T/C [4]: 84.5%
viability, T/C [5]: 61.6%
viability, T/C [6]: 49%
viability, T/C [7]: 116%
viability, T/C [8]: 111%
viability, T/C [9]: 105%
viability, T/C [10]: 96.1%
viability, T/C [11]: 57%
viability, T/C [12]: 47.6%
viability, T/C [13]: 96.7%
viability, T/C [14]: 98%
viability, T/C [15]: 97%
viability, T/C [16]: 78.1%
viability, T/C [17]: 62.9%
viability, T/C [18]: 40.9%
viability, T/C [19]: 86.1%
viability, T/C [20]: 104%
viability, T/C [21]: 96.4%
viability, T/C [22]: 82.3%
viability, T/C [23]: 70.5%
viability, T/C [24]: 47.9%
viability, T/C [25]: 99.2%
viability, T/C [26]: 98.8%
viability, T/C [27]: 93%
viability, T/C [28]: 84.1%
viability, T/C [29]: 75.9%
viability, T/C [30]: 43.4%
viability, T/C [31]: 89%
viability, T/C [32]: 97.6%
viability, T/C [33]: 93.8%
viability, T/C [34]: 85.4%
viability, T/C [35]: 57.7%
viability, T/C [36]: 45.8%
